A short description of data set [1]: Pharmacokinetic study in C57BL/6 mice. It counts as in vivo, male C57BL/6 mice. The protocol:
(§1) The pharmacokinctics of test compounds were evaluated in male C57BL/6 mice, Sprague Dawley rats, Beagle dogs, and cynomolgus monkeys when administered via oral gavage and IV injection. The animals were fasted overnight before administration. Plasma samples were collected predose and at 0.5, 1, 3, 6, 9, 12, and 24 hours postdose. The samples were analyzed by LC/MS/MS and the concentration of test compound at each timepoint was determined by linear regression. Pharmacokinetic parameters were calculated from the plasma concentrations using Pheonix WinNonlin.

A short description of data set [2]: Pharmacokinetic study in cynomolgus monkeys. The class given is in vivo. The protocol: as §1
Data set [3] is described as follows: Pharmacokinetic study in Sprague Dawley rats. The class given is in vivo. The following applies: rat, plasma. On the procedure:
as §1

The nature of data set [4]: Pharmacokinetic study in Beagle dogs. The following applies: dog, plasma. It counts as in vivo. The protocol: as §1
[5] abbreviates: male, mouse, plasma, Oral (10 mg/kg).
[6] abbreviates: male, mouse, plasma, iv, I.V. (2 mg/kg).
Where [7] appears, read: Oral (2 mg/kg), NA: no detectable.
[8] abbreviates: cynomolgus monkey, plasma, iv, I.V. (1 mg/kg).
The mark [9] stands for this setting: cynomolgus monkey, plasma, Oral (2 mg/kg), NA: no detectable.
Where [10] appears, read: iv, I.V. (1 mg/kg), read-out: Vdss.

The results in this text go back to US11731956B2, “Substituted 1,2,4-triazoles as intermediates in the synthesis of TYK2 inhibitors” (Alumis Inc., priority 2018, dated 2023).

Each structure is given as a SMILES string.

In data set [1] (I.V. (2 mg/kg)), `[2H]C([2H])([2H])CC(=O)c1cnc(NC(=O)C2CC2)cc1Nc1cccc(-c2ncn(C([2H])([2H])[2H])n2)c1OC` [Example 195] yielded a CL of 4.16 mL · kg − 1 · min − 1. Further, in data set [1] (I.V. (2 mg/kg)), the Vdss came out at 0.688 L/kg. Moreover, the figures for the peak concentration (Cmax) in data set [1] (Oral (10 mg/kg)) and in data set [2] (setting [7]) were 4295 ng/mL and 663 ± 497 ng/mL, respectively. Further, the F % is reported as 41.7% in data set [1] (Oral (10 mg/kg)) and 16.6 ± 9.95% in data set [2] (setting [7]). In addition, the time to peak (Tmax) was found to be 0.500 h in data set [1] (Oral (10 mg/kg)) and 4.0 ± 0 h in data set [2] (setting [7]). Further, the figures for the AUC in data set [1] (setting [5]) and in data set [1] (setting [6]) were 16700 ng·h/mL and 7990 ng·h/mL, respectively. Moreover, the C0 was determined as 2950 ng/mL in data set [1] (setting [6]); 1290 ± 106 ng/mL in data set [2] (setting [8]); 2150 ± 123 ng/mL in data set [3] (iv, I.V. (1 mg/kg)); 185 ± 8.4 ng/mL in data set [4] (iv, I.V. (1 mg/kg)).

On to `[2H]C([2H])([2H])CC(=O)c1cnc(Nc2cccc(C#N)n2)cc1Nc1cccc(-c2ncn(C([2H])([2H])[2H])n2)c1OC` [Example 198], for which, in data set [2] (setting [7]), the Cmax came to 246 ± 124 ng/mL, the F % is given as 59.4 ± 21.1% and the Tmax is reported as 4 ± 0 h. Also, the C0 in data set [2] (setting [8]) stood at 667 ± 82 ng/mL. The compound also gave a C0 in data set [3] (iv, I.V. (1 mg/kg)) of 1200 ± 70 ng/mL. Further, in data set [4] (iv, I.V. (1 mg/kg)), the C0 came out at 182 ± 47.6 ng/mL.

In the case of `[2H]C([2H])([2H])CC(=O)c1cnc(Nc2cccc(C#N)n2)cc1Nc1nccc(-c2ncn(C([2H])([2H])[2H])n2)c1OC` [Example 199], the C0 in data set [3] (iv, I.V. (1 mg/kg)) was 414 ± 56 ng/mL; in data set [4] (iv, I.V. (1 mg/kg)), 334 ± 96 ng/mL.

In data set [1] (I.V. (2 mg/kg)), `[2H]C([2H])([2H])CC(=O)c1cnc(NC(=O)C2CC2)cc1Nc1nccc(-c2ncn(C([2H])([2H])[2H])n2)c1OC` [Example 200] registered a CL of 7.35 mL · kg − 1 · min − 1 and a Vdss of 1.5 L/kg. Moreover, in data set [1] (Oral (10 mg/kg)), the Cmax amounted to 4193 ng/mL, the F % is recorded as 85.1% and the Tmax was 0.250 h. Moreover, the exposure (AUC) in data set [1] (setting [5]) amounted to 19300 ng·h/mL. Also, in data set [1] (setting [6]), the area under the curve (AUC) came to 4480 ng·h/mL and the C0 came to 2390 ng/mL. For the same compound, in data set [2] (setting [7]), the Cmax is 384 ± 22 ng/mL, the F % is listed as 27.7 ± 1.7% and the time of peak concentration (Tmax) turned out to be 2.0 ± 0 h. This compound also showed a C0 in data set [2] (setting [8]) of 677 ± 81 ng/mL. Moreover, the C0 in data set [3] (iv, I.V. (1 mg/kg)) was 1030 ± 47 ng/mL. Moreover, in data set [4] (iv, I.V. (0.5 mg/kg)), the C0 stood at 29.7 ± 14 ng/mL and the clearance worked out at 8.17 ± 2.6 mL/min/kg.

`[2H]C([2H])([2H])CC(=O)c1cnc(Nc2ccc(C(C)(C)O)c(F)n2)cc1Nc1nccc(-c2ncn(C([2H])([2H])[2H])n2)c1OC` [Example 201]: in data set [2] (setting [7]), the Cmax turned out to be 13.9 ± 2 ng/mL, the F % is listed as 4.67 ± 1.5% and the time of peak concentration (Tmax) is listed as 2.33 ± 1.5 h. In data set [2] (setting [8]), this compound displayed a C0 of 849 ± 50 ng/mL. Moreover, the C0 in data set [3] (iv, I.V. (1 mg/kg)) was determined as 1190 ± 116 ng/mL. The C0 in data set [4] (iv, I.V. (1 mg/kg)) came to 458 ± 336 ng/mL.

`[2H]C([2H])([2H])CC(=O)c1cnc(Nc2ccc(C(C)(C)O)c(F)n2)cc1Nc1cccc(-c2ncn(C([2H])([2H])[2H])n2)c1OC` [Example 202]: in data set [1] (I.V. (2 mg/kg)), the CL came out at 17.3 mL · kg − 1 · min − 1 and the distribution volume (Vdss) is given as 0.785 L/kg. For the same compound, in data set [1] (Oral (10 mg/kg)), the peak concentration (Cmax) was found to be 1899 ng/mL, the F % amounted to 66.6% and the Tmax stood at 0.500 h. Further, the AUC in data set [1] (setting [5]) came to 6400 ng·h/mL. Also, in data set [1] (setting [6]), the exposure (AUC) amounted to 1910 ng·h/mL and the C0 stood at 3340 ng/mL. This compound also registered a C0 in data set [3] (iv, I.V. (1 mg/kg)) of 1980 ± 101 ng/mL. This compound yielded a C0 in data set [4] (iv, I.V. (1 mg/kg)) of 469 ± 255 ng/mL.

Compound `[2H]C([2H])([2H])CC(=O)c1cnc(Nc2ccc(C(O)(C([2H])([2H])[2H])C([2H])([2H])[2H])c(F)n2)cc1Nc1ncccc1S(C)(=O)=O` [Example 203] showed a C0 in data set [2] (setting [8]) of 787 ± 61 ng/mL.

For the compound `[2H]C([2H])([2H])NC(=O)c1nnc(NC(=O)C2CC2)cc1Nc1cccc(-c2ncn(C)n2)c1OC` [control, BMS-986165, reference compound], the AUC in data set [1] (setting [5]) worked out at 8870 ng·h/mL; in data set [1] (setting [6]) it was 2040 ng·h/mL; in data set [2] (setting [9]), 3190 ± 1630 ng·h/mL; in data set [2] (setting [8]) it was 5740 ± 1170 ng·h/mL; in data set [3] (Oral (5 mg/kg)), 3200 ± 600 ng·h/mL; in data set [3] (iv, I.V. (1 mg/kg)) it was 1970 ± 166 ng·h/mL. Moreover, the area under the curve (AUC) was 1310 ± 579 ng·h/mL in data set [4] (Oral (2 mg/kg)) and 1900 ± 349 ng·h/mL in data set [4] (iv, I.V. (1 mg/kg)). Moreover, the bioavailability in data set [1] (setting [5]) stood at 86.7%; in data set [2] (setting [9]), 27.8 ± 14%; in data set [3] (Oral (5 mg/kg)), 32.6 ± 5.4%; in data set [4] (Oral (2 mg/kg)), 35.5 ± 15%. Besides, the half-life in data set [1] (setting [5]) is 2.96 h; in data set [1] (setting [6]), 2.19 h; in data set [2] (setting [9]), 10.6 ± 3.8 h; in data set [2] (setting [8]), 7.54 ± 1.6 h; in data set [3] (Oral (5 mg/kg)), 2.93 ± 1.2 h; in data set [3] (iv, I.V. (1 mg/kg)), 2.42 ± 1.7 h. Besides, the half-life in data set [4] (Oral (2 mg/kg)) was 6.21 ± 2.9 h; in data set [4] (iv, I.V. (1 mg/kg)) it was 4.43 ± 0.87 h. The Cmax turned out to be 4700 ng/mL in data set [1] (male, mouse, plasma, Oral (10 mg/kg), read-out: Cmax); 247 ± 136 ng/mL in data set [2] (cynomolgus monkey, plasma, Oral (2 mg/kg), NA: no detectable, read-out: Cmax); 792 ± 260 ng/mL in data set [3] (Oral (5 mg/kg)); 222 ± 46 ng/mL in data set [4] (Oral (2 mg/kg)). Further, the Tmax in data set [1] (male, mouse, plasma, Oral (10 mg/kg), read-out: Tmax) was found to be 0.25 h; in data set [2] (cynomolgus monkey, plasma, Oral (2 mg/kg), NA: no detectable, read-out: Tmax), 5.33 ± 1.2 h; in data set [3] (Oral (5 mg/kg)), 1 ± 0.87 h; in data set [4] (Oral (2 mg/kg)), 1.67 ± 0.58 h. Further, the C0 in data set [1] (setting [6]) came to 3220 ng/mL; in data set [2] (setting [8]), 1420 ± 264 ng/mL; in data set [3] (iv, I.V. (1 mg/kg)), 1740 ± 276 ng/mL; in data set [4] (iv, I.V. (1 mg/kg)), 559 ± 34 ng/mL. For the same compound, the clearance amounted to 15.6 mL/min/kg in data set [1] (setting [6]); 2.79 ± 0.74 mL/min/kg in data set [2] (setting [8]); 8.41 ± 0.7 mL/min/kg in data set [3] (iv, I.V. (1 mg/kg)); 8.85 ± 1.7 mL/min/kg in data set [4] (iv, I.V. (1 mg/kg)). Besides, the Vd in data set [1] (male, mouse, plasma, iv, I.V. (2 mg/kg), read-out: Vdss) was 1.56 L/kg; in data set [2] (cynomolgus monkey, plasma, iv, I.V. (1 mg/kg), read-out: Vdss), 1.2 ± 0.042 L/kg; in data set [3] (setting [10]), 0.933 ± 0.12 L/kg; in data set [4] (setting [10]), 2.27 ± 0.23 L/kg.

As usually defined, the Vdss is a proportionality between amount in the body and measured concentration, not a real space. Higher therefore signals wide distribution into tissue. Usually Cmax stands for the highest concentration seen after dosing. The Tmax is the time from dosing to the highest level. In general, AUC refers to the area under the concentration-time curve, a measure of exposure. The low end stands for less exposure, the high end for more exposure. A word on the clearance: it is the volume of plasma or blood freed of the substance per unit of time. By bioavailability is commonly meant the share of a dose that reaches the circulation, judged against a reference dose that is usually intravenous. Higher therefore signals much systemic uptake. Broadly, the half-life is the time in which the quantity being followed falls by half.
